This experiment relates to GVHD model mice (BALB/c receptor mice, C57BL/6 donor mice). Put plainly: GVHD model induced by mouse allogeneic bone marrow transplantation. The class given is in vivo. The following applies: for survival rate at 61 days: 61 days after allogeneic bone marrow transplantation. From the text:
This study evaluates a pharmacodynamics effect of a test drug CS12192 in a GVHD model induced by mouse allogeneic bone marrow transplantation. In the GVHD model, 6-8 week old of two types of C57BL/6 (H-2b) and BALB/c (H-2d) male mice are used as donor and receptor animals respectively. Wherein, C57BL/6 mice are the donor mice, and BALB/c mice are the receptor mice.
The receptor mice are sent to an irradiation center to receive 8.5 Gry systemic irradiation on the day before transplantation, and after the irradiation, the mice are randomly divided into groups according to the body weights of the mice. On day 0, after 3-5% isoflurane pre-anesthesia, the donor mice are killed by cervical dislocation, and spleens are excised in a sterile environment, ground, and filtered by a sterile filter. Then red blood cells are digested with ammonium chloride buffer solution, lymphocytes are washed twice with RPMI 1640 culture solution, and finally resuspended in RPMI 1640 culture solution containing 10% fetal bovine serum, to prepare a lymphocyte suspension.
The receptor mice are divided into 6 groups, and each group includes 10 mice.

The results in this text go back to patent publication US20220387430A1, “USE OF COMPOUND IN PREVENTING OR TREATING GRAFT VERSUS HOST DISEASE” (SHENZHEN CHIPSCREEN BIOSCIENCES, CO., LTD., priority 2019, published 2022).

Regarding `C[C@]12C=CC(=O)C=C1CC[C@@H]1[C@@H]2[C@@H](O)C[C@@]2(C)[C@H]1CC[C@]2(O)C(=O)CO` [prednisolone, reference compound], the “survival rate at 61 days” value (prednisolone 20 mg/kg once a day, p<0.01 relative to the vehicle control) is on record as 67%.

`C=CC(=O)N(C)c1cc(Nc2ncc(Cl)c(NCCCNC(=O)c3ccc(C#N)cc3)n2)ccc1F` [CS12192]: the “survival rate at 61 days” value is 89% (CS12192 40 mg/kg twice a day, p<0.0005 relative to the vehicle control) and 100% (CS12192 80 mg/kg twice a day, p<0.0001 relative to the vehicle control). Moreover, the “weight gains of the mice” value (CS12192 two-dose groups (40 and 80 mg/kg twice a day) versus positive drug prednisolone group and solvent control group (FIG. 2)) was “significantly better than that of the positive drug prednisolone group”.
